According to US6174907A, “Benzimidazole compounds containing 1,2,4-triazole ring, and compositions and methods of use containing the same” (Fuji Photo Film Co., Ltd., priority 1995, dated 2001):
Read-outs that look alike come from different tables or passages of the source.

Legend:
[1] = tested on: mouse peritoneal macrophages; experiment: Suppression of foaming of macrophages (cholesterol ester synthesis) in vitro; format: cell-based, mouse (female ICR); conditions: for activity at 5 µM: Mus musculus, Peritoneal macrophage, 16 hours, relative to control as 100%, smaller value = more potent suppression, read-out: Rate of CE synthesis (%)
Procedure: Activity of the compounds of the present invention for suppressing the foaming of macrophages
(§1) Activity of the compounds of the present invention for suppressing the foaming of macrophages, which triggers arterial sclerosis, was examined by an in vitro experiment using mouse peritoneal macrophages. 15-Week old female ICR mice (Nippon SLC) were subjected to bleeding by cutting off their cervicalis, and Hanks buffer (Nippon Seiyaku) was injected into their peritoneal cavities. After abdominal regions of the mice were massaged, the buffer was recovered immediately, and then the resulting buffer was centrifuged at 1,000 r.p.m. for five minutes to collect peritoneal macrophages. Then, the collected macrophages were suspended in GTI medium (Wako Pure Chemical Industries), and inoculated onto a 24-well microtiter plate. After the macrophages were cultivated at 37° C. under 5% CO2 for two hours, the culture medium was changed with Dulbecco Modified Eagle Medium (MEM, Nippon Seiyaku). The macrophages were further cultivated at 37° C. under 5% CO2 for 16 hours, and then a test compound and liposomes were added to the culture.
1) Test compound: dissolved in DMSO (Wako Pure Chemical Industries),
PC: Phosphatidylcholine (Funakoshi);
PS: Phosphatidylserine (Funakoshi);
DCP: Dicetylphosphate (Funakoshi);
CHOL: Cholesterol (Sigma)
(§2) After cultivation was further continued at 37° C. under 5% CO2 for 16 hours, lipid fraction was extracted with chloroform and methanol. The extracted lipid fraction was dissolved in isopropyl alcohol, and the produced cholesterol ester (CE) was quantified by an enzymatic luminescence method. Yield of the cholesterol ester was calculated as a relative ratio based on yield of the control as 100% where no test compound was added. Cytotoxicity was examined microscopically by observing morphological alteration of cells. In the tables, compound numbers correspond to those of the compounds of present invention described in the examples.

[2] = tested on: mouse peritoneal macrophages; experiment: Cytotoxicity examined microscopically (morphological alteration of cells); format: cell-based, mouse (female ICR); conditions: 5 μM, observed microscopically
Procedure: as §1, §2

Compound	activity at 5 µM ([1]; Table 4) [%]	Cytotoxicity ([2]; Table 4)	activity at 5 µM ([1]; Table 3) [%]	Cytotoxicity ([2]; Table 3)	Activity for suppressing the foaming of macrophages (in words) [1]
c1ccc(SCCCCCSc2nc3ccccc3[nH]2)nc1 [Compound B30, 5-(2'-Benzimidazolylthio)-1-(2"-pyridylthio)pentane]	9	Not observed	–	–	–
CCC(=O)Nc1ccc2[nH]c(SCCCCCSc3ccccn3)nc2c1 [Compound B37]	20	Not observed	–	–	–
CN(C)C(=O)c1ccc2[nH]c(SCCCCCSc3ccccn3)nc2c1 [Compound B39]	28	Not observed	–	–	–
Cc1ccc2[nH]c(SCCCCCSc3nc4ccccc4s3)nc2c1 [Compound A36]	–	–	21	Not observed	–
Cc1cc(C)nc(SCCCCCSc2nc3ccccc3[nH]2)n1 [Compound B51]	24	Not observed	–	–	–
CNS(=O)(=O)c1ccc2c(c1)nc(SCCCCCSc1nc3ccccc3[nH]1)n2C [Compound A23, 1-(2'-(1'-methyl-5'-methylsulfamoylbenzimidazolyl)thio)-5-(2"-benzimidazolylthio)pentane]	–	–	34	Not observed	–
Cn1c(=O)c2nc(SCCCCCSc3nc4ccccc4[nH]3)[nH]c2n(C)c1=O [Compound B13]	26	Not observed	–	–	–
Cc1cc2nc(SCCCCCSc3nc4ccccc4[nH]3)[nH]c2cc1C [Compound A10, 1-(2'-(5',6'-dimethylbenzimidazolyl)thio)-5-(2"-benzimidazolylthio)pentane]	–	–	20	Not observed	–
Cc1ccc2[nH]c(SCCOCCOCCSc3nc4ccccc4[nH]3)nc2c1 [Compound A22]	–	–	20	Not observed	–
c1ccc2[nH]c(SCCCCCSc3ncnc4cn[nH]c34)nc2c1 [Compound B60]	14	Not observed	–	–	–
Clc1cc2nc(SCCCCCSc3nc4ccccc4[nH]3)[nH]c2cc1Cl [Compound A11, 1-(2'-(5',6'-dichlorobenzimidazolyl)thio)-5-(2"-benzimidazolylthio)pentane]	–	–	9	Not observed	–
c1ccc2[nH]c(SCCCCCSC3=NCCCN3)nc2c1 [Compound B54]	24	Not observed	–	–	–
COc1ccc2[nH]c(SCCCCCSc3ccccn3)nc2c1 [Compound B34]	37	Not observed	–	–	–
CCC(=O)Nc1ccc2[nH]c(SCCCCCSc3nc4ccccc4[nH]3)nc2c1 [Compound A8, 1-(2'-benzimidazolylthio)-5-(2"-(5"-propionylaminobenzimidazolyl)thio)pentane]	–	–	24	Not observed	–
c1ccc(SCCCCCCCCCCCc2nc3ccccc3[nH]2)nc1 [Compound B48]	41	Not observed	–	–	–
Cc1ccc2[nH]c(SCCCCSc3nc4ccccc4[nH]3)nc2c1 [Compound A18, 1-(2'-(5'-methylbenzimidazolyl)thio)-4-(2"-benzimidazolylthio)butane]	–	–	52	Not observed	–
c1ccc(-c2ccc3oc(SCCCCCSc4nc5ccccc5[nH]4)nc3c2)cc1 [Compound A39, 1-(2'-benzimidazolylthio)-5-(2"-(5"-phenylbenzoxazolyl)thio)pentane]	–	–	24	Not observed	–
c1ccc(-c2nc(SCSc3nc4ccccc4[nH]3)[nH]c2-c2ccccc2)cc1 [Control Compound, reference compound]	102	Not observed	–	–	did not exhibit activity for suppressing the foaming of macrophages
Oc1ccc2[nH]c(SCCCCCSc3nc4ccccc4[nH]3)nc2c1 [Compound A6, 1-(2'-benzimidazolylthio)-5-(2"-(5"-hydroxybenzimidazolyl)thio)pentane]	–	–	46	Not observed	–
c1ccc2[nH]c(SCCCCCSc3nc4ccccc4o3)nc2c1 [Compound A37, 1-(2'-benzimidazolylthio)-5-(2"-benzoxazolylthio)pentane]	–	–	13	Not observed	–
Oc1cc(SCCCCCSc2nc3cc(Cl)c(Cl)cc3[nH]2)nc2ccccc12 [Compound B58]	18	Not observed	–	–	–
c1ccc2[nH]c(SCCCCCSc3nnc[nH]3)nc2c1 [Compound B5]	14	Not observed	–	–	–
c1ccc2[nH]c(SCCCCCSc3nnc(SCCn4ccnc4)s3)nc2c1 [Compound B21]	11	Not observed	–	–	–
c1ccc2[nH]c(SCCCCCSc3ncc[nH]3)nc2c1 [Compound B1, 1-(2'-benzimidazolylthio)-5-(2"-imidazolylthio)pentane]	41	Not observed	–	–	–

Compound	activity at 5 µM ([1]; Table 4) [%]	Cytotoxicity ([2]; Table 4)	activity at 5 µM ([1]; Table 3) [%]	Cytotoxicity ([2]; Table 3)	Activity for suppressing the foaming of macrophages (in words) [1]
FC(F)(F)c1ccc2c(SCCCCCSc3nc4ccccc4[nH]3)ccnc2c1 [Compound B63]	15	Not observed	–	–	–
Cc1ccc2[nH]c(SCCCCCCCCSc3nc4ccccc4[nH]3)nc2c1 [Compound A20, 1-(2'-(5'-methylbenzimidazolyl)thio)-8-(2"-benzimidazolylthio)octane]	–	–	61	Not observed	–
Cc1ccc2[nH]c(SCCCCCSc3ccccn3)nc2c1 [Compound B35]	46	Not observed	–	–	–
CN(C)CCSc1nnc(SCCCCCSc2nc3ccccc3[nH]2)s1 [Compound B20]	24	Not observed	–	–	–
c1ccc2[nH]c(SCCCCCSC3=NCCS3)nc2c1 [Compound B15]	11	Not observed	–	–	–
CC1=CC(C)(C)NC(SCCCCCSc2nc3ccccc3[nH]2)=N1 [Compound B55]	52	Not observed	–	–	–
CS(=O)(=O)Nc1ccc2[nH]c(SCCCCCSc3ccccn3)nc2c1 [Compound B38]	22	Not observed	–	–	–
c1ccc2nc(SCCCCCSc3nc4ccccc4[nH]3)ccc2c1 [Compound B57]	26	Not observed	–	–	–
COc1ccc2[nH]c(SCCCCCSc3nc4ccccc4[nH]3)nc2c1 [Compound A5, 1-(2'-benzimidazolylthio)-5-(2"-(5"-methoxybenzimidazolyl)thio)pentane]	–	–	39	Not observed	–
c1ccc(SCCCCCCSc2nc3ccccc3[nH]2)nc1 [Compound B31]	27	Not observed	–	–	–
CC(=O)Nc1nnc(SCCCCCSc2nc3ccccc3[nH]2)s1 [Compound B17]	18	Not observed	–	–	–
c1cnc2c(SCCCCCSc3nc4ccccc4[nH]3)cccc2c1 [Compound B62]	25	Not observed	–	–	–
c1ccc(-c2cnc(SCCCCCSc3nc4ccccc4[nH]3)n2-c2ccccc2)cc1 [Compound B4]	47	Not observed	–	–	–
c1ccc2[nH]c(SCCCCCSc3nc4ccccc4s3)nc2c1 [Compound A33, 1-(2'-benzimidazolylthio)-5-(2"-benzothiazolylthio)pentane]	–	–	13	Not observed	–
Oc1ccnc(SCCCCCSc2nc3ccccc3[nH]2)c1 [Compound B53]	52	Not observed	–	–	–
CN(C)C(=O)c1nnc(SCCCCCSc2nc3ccccc3[nH]2)s1 [Compound B18]	35	Not observed	–	–	–
S=c1sc(SCCCCCSc2nc3ccccc3[nH]2)nn1-c1ccccc1 [Compound B22]	21	Not observed	–	–	–
c1ccc(-n2ccnc2SCCCCCSc2nc3ccccc3[nH]2)cc1 [Compound B3]	34	Not observed	–	–	–
CCCc1cc(SCCCCCSc2nc3ccccc3[nH]2)n2ncnc2n1 [Compound B61]	12	Not observed	–	–	–
[O-][n+]1ccccc1SCCCCCSc1nc2ccccc2[nH]1 [Compound B40]	25	Not observed	–	–	–
CCOc1ccc2nc(SCCCCCSc3nc4ccccc4[nH]3)sc2c1 [Compound A35, 1-(2'-benzimidazolylthio)-5-(2"-(6"-ethoxybenzothiazolyl)thio)pentane]	–	–	25	Not observed	–
O=[N+]([O-])c1ccc2[nH]c(CCCCCSc3nc4ccccc4[nH]3)nc2c1 [Compound A30]	–	–	52	Not observed	–
Cc1cc(O)nc(SCCCCCSc2nc3ccccc3[nH]2)n1 [Compound B52]	49	Not observed	–	–	–
